Consider 13 molecules from patent US20150258082A1, “COMBINATION THERAPY WITH GLUTAMINASE INHIBITORS” (priority 2014, published 2015).

Like-named read-outs stand apart in the source and are kept apart here.

Test [1] relates to P493-6 (myc "on") cells. The test is described as follows: Cell Proliferation Assay, P493-6 cells, 72 hrs. The format is cell-based. The method, then:
For compound assay, P493-6 cells were plated in 96-well V-bottom plates on the day of compound addition in 50 μl of growth media at a cell density of 200,000 cells/ml (10,000 cells/well). Compounds were serially diluted in 100% DMSO at 200-times the final concentration. Compounds were diluted 100-fold into growth media and then 50 μl of this mixture was added to cell plates making the final concentration of DMSO 0.5%. Cells were incubated with compound for 72 hrs at 37° C. with 5% CO2 and analyzed for antiproliferative effects either by Cell Titer Glo (Promega) or FACS analysis using the Viacount (Millipore) kit on the Guava instrument.

The target in test [2] is T1, recombinant form of Glutaminase 1 (GAC) (Homo sapiens, UniProt O94925).
T1 sequence (O94925 137-598 isoform O94925-3 limits assumed): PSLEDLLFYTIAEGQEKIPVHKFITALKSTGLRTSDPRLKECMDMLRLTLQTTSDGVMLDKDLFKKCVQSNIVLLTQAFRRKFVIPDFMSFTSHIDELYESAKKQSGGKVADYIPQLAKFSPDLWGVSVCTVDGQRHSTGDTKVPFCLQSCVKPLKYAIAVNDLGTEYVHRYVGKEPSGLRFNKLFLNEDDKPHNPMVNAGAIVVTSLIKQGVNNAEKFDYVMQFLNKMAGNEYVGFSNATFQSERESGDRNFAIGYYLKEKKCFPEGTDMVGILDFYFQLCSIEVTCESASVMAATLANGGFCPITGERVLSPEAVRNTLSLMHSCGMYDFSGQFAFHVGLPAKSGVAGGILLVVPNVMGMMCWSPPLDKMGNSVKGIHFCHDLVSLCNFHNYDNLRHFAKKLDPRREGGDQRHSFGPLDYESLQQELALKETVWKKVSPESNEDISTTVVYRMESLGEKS
The test is described as follows: Recombinant Enzyme Assay (no preincubation). The format is biochemical. The note with it: read-out: GAC Delta N2 IC50 no preinc.
Description: Compounds were assessed for their ability to inhibit the enzymatic activity of a recombinant form of Glutaminase 1 (GAC) using a biochemical assay that couples the production of glutamate (liberated by GAC) to glutamate dehydrogenase (GDH) and measuring the change in absorbance for the reduction of NAD^+ to NADH. […] Enzymatic reaction was started with the addition of 50 μL of enzyme solution (50 mM Tris-HCl pH 8.0, 0.2 mM EDTA, 150 mM K2HPO4, 0.1 mg/ml BSA, 1 mM DTT, 10 ppm antifoam, 4 units/ml GDH, 4 mM adenosine diphosphate, and 4 nM GAC) and read in a Molecular Devices M5 plate reader at 20° C. The plate reader was configured to read absorbance (λ=340 nm) in kinetic mode for 15 minutes. Data was recorded as milli-absorbance units per minute and slopes were compared to a control compound and a DMSO-only control on the same plate. Compounds with slopes less than the DMSO control were considered inhibitors and plate variability was assessed using the control compound.

Test [3] deals with RPMI-8226 multiple myeloma xenograft. The test is described as follows: Multiple myeloma xenograft study with CB-839, pomalidomide and combination. Particulars: CB-839 200 mg/kg oral BID + pomalidomide 1 mg/kg oral QD; P<0.01. The format is in vivo, mice. The method, then:
Female scid/beige mice (age 7-9 weeks) were implanted subcutaneously with 1×10^7 RPMI-8226 myeloma cells mixed 1:1 with matrigel. Tumors were measured with calipers three times per week and tumor volume calculated using the formula tumor volume (mm^3)=(a×b^2/2) where ‘b’ is the smallest diameter and ‘a’ is the largest perpendicular diameter.

Test [4] shares this test system. The test is described as follows: Multiple myeloma xenograft study, compound 670 and lenalidomide. The format is in vivo, mice. Particulars: compound 670 200 mg/kg oral BID + lenalidomide 30 mg/kg oral QD, 24 days; P<0.0001 vs vehicle and lenalidomide alone, P<0.01 vs CB-839 alone. The method, then:
Female scid/beige mice (n=40) age 7-8 weeks were implanted subcutaneously with 3×10^7 RPMI-8226 multiple myeloma cells per mouse mixed 1:1 with Matrigel. […] Tumors were measured with calipers three times per week and tumor volume calculated using the formula tumor volume (mm^3)=(a×b^2/2) where ‘b’ is the smallest diameter and ‘a’ is the largest perpendicular diameter. ****P-value<0.0001 (One-way ANOVA vs. vehicle and vs. Lenalidomide alone) **P-value<0.01 (One-way ANOVA vs. CB-839 alone).

Test [5] has as its system MM1S cells and RPMI-8226 cells. Put plainly: Combination of compound 670 with pomalidomide or lenalidomide, cell survival and combination index. The format is cell-based. Particulars: 72 hours; cells resistant to pomalidomide or lenalidomide or not; combination index by Calcusyn. Here is the method: At the end of the incubation, cell viability was measured using Cell Titer Glo as per manufacturer's protocol (Promega, Madison, Wis.). Measured values for compound-treated cells were normalized to DMSO-treated cells and data is reported as a cell survival ratio with a value of 1 (one) corresponding to maximum cell survival and a value of 0 (zero) corresponding to no cell survival. Cell survival ratios for all compound treatments are represented as bar graphs. Combination indices were calculated using the Calcusyn program (biosoft.com) and reported for individual mixtures of compound 670 and either pomalidomide or lenalidomide. Compound mixtures that produced a synergistic anti-tumor activity are highlighted.

The test system of test [6] is RPMI-8226 cells. Put plainly: Anti-proliferative activity in multiple myeloma cell line RPMI-8226 (Cell Titer Glo, 72 hrs). The format is cell-based. Here is the method: Multiple myeloma cell lines RPMI-8226 and MM1S were seeded in 96-well plates at a density of 10,000 cells/well. […] Cells were incubated for 72 hrs at 37° C. with 5% CO2 and analyzed for antiproliferative effects by Cell Titer Glo (Promega). Cell proliferation (% of DMSO control) was determined by comparing the Cell Titer Glo signal (rfu) of compound 670-, lenalidomide-, or pomalidomide-treated cells versus DMSO treated cells. Cell viability (% DMSO of control) was plotted against compound concentration and resulting curves were fit using a four-parameter dose response to determine IC50 values.
A general note: Cellular ATP, detected with luciferase, serves as a proxy for viable cell number.

Test [7] has as its target T1, recombinant form of Glutaminase 1 (GAC). The test is described as follows: Recombinant Enzyme Assay - Time Dependence (60 min preincubation). The format is biochemical. The method, then:
The enzyme/compound mix was sealed with sealing foil (USA Scientific) and allowed to incubate, with mild agitation, for 60 minutes at 20° C. Enzymatic reaction was started with the addition of 50 μL of substrate solution (50 mM Tris-HCl pH 8.0, 0.2 mM EDTA, 150 mM K2HPO4, 0.1 mg/ml BSA, 1 mM DTT, 20 mM L-glutamine, 2 mM NAD^+, and 10 ppm antifoam) and read in a Molecular Devices M5 plate reader at 20° C. The plate reader was configured to read absorbance (λ=340 nm) in kinetic mode for 15 minutes. Data was recorded as milli-absorbance units per minute and slopes were compared to a control compound and a DMSO-only control on the same plate. Compounds with slopes less than the DMSO control were considered inhibitors and plate variability was assessed using the control compound.

The mark [8] stands for this setting: P493-6, 72 h, read-out: Cell prolif P493 72h IC50, P493 cells, 72h.

`O=C(OCCCN1CCOCC1)OCN(C(=O)Cc1ccccc1)c1nnc(CCSCCc2nnc(N(COC(=O)OCCCN3CCOCC3)C(=O)Cc3ccccc3)s2)s1` [compound 28]: in test [1] (setting [8]), the IC50 turned out to be 1000 nM.

On to `O=C(Cc1cccc(F)c1)Nc1nnc(CCCCc2nnc(NC(=O)C[C@@H](O)C(=O)O)s2)s1` [compound 153], for which the figures for the IC50 in test [1] (setting [8]) and in test [2] were greater than 50000 nM and 1000 nM, respectively.

In the case of `O=C(Cc1cccc(OC(F)(F)F)c1)Nc1ccc(CCCCc2nnc(NC(=O)Cc3ccccn3)s2)nn1` [compound 670], the IC50 in test [1] (read-out: Cell prolif P493 72h IC50, P493 cells, 72h) worked out at 30 nM. Also, the “reduction in tumor size, combination with pomalidomide vs either agent alone” value in test [3] is given as “greater reduction in tumor size”. Besides, in test [4], the “reduction in tumor size, combination with lenalidomide vs either agent alone” value is listed as “greater reduction in tumor size”. In test [5], the “combination effect with lenalidomide in multiple myeloma cells” value is on record as “synergizes” and the “combination effect with pomalidomide in multiple myeloma cells” value is recorded as “synergizes”.

As to `C=C(C(=O)Nc1nnc(CCCCc2nnc(NC(=O)C(COC(=O)CCN3CCOCC3)c3ccccc3)s2)s1)c1ccccc1` (centres unmarked) [compound 281], the IC50 in test [1] (setting [8]) was determined as 660 nM.

On to `O=C(Nc1nnc(CCSCCc2nnc(NC(=O)C(c3ccccc3)N3CCNCC3)s2)s1)C(c1ccccc1)N1CCNCC1` (centres unmarked) [compound 79], for which the IC50 in test [1] (setting [8]) is 20000 nM.

Regarding `CCOc1ccc(C(O)C(=O)Nc2nnc(CCCCc3ccc(NC(=O)Cc4ccccc4)nn3)s2)cc1` (centres unmarked) [compound 558], the IC50 in test [1] (setting [8]) is 28 nM.

For the molecule `O=C(Nc1nnc(CCCCc2nnc(NC(=O)[C@@H]3CC3c3ccccc3)s2)s1)C1C[C@H]1c1ccccc1` (some centres unmarked) [compound 90], in test [2], the IC50 is greater than 20000 nM.

Consider `Nc1cccc2c1CN(C1CCC(=O)NC1=O)C2=O` (centres unmarked) [lenalidomide], for which the “sensitivity of RPMI-8226 myeloma cells to the agent” value in test [6] is reported as “resistant”.

Turning to `O=C(COC(C(=O)Nc1nnc(CCCCc2nnc(NC(=O)C(COC(=O)C3CCN(C(=O)OCc4ccccc4)CC3)c3ccccc3)s2)s1)c1ccccc1)C1CCN(C(=O)OCc2ccccc2)CC1` (centres unmarked) [compound 301], the IC50 in test [1] (setting [8]) is 230 nM.

For the molecule `O=C(COC(C(=O)Nc1nnc(CCCCc2nnc(NC(=O)C(COC(=O)C3CCNCC3)c3ccccc3)s2)s1)c1ccccc1)C1CCNCC1` (centres unmarked) [compound 302], the IC50 in test [1] (setting [8]) worked out at 870 nM; in test [2], 7000 nM.

For the molecule `COC(=O)NCC1=CC(CC(=O)Nc2ccc(CCCCc3nnc(NC(=O)Cc4cccc(CNC(=O)OC)c4)s3)nn2)=CCC1` [compound 573], the IC50 in test [1] (setting [8]) amounted to 15 nM; in test [7] it was 4 nM.

On to `O=C(Cc1ccc(Cl)c(CC(F)(F)F)c1)Nc1ccc(CCCCc2nnc(NC(=O)Cc3ccccn3)s2)nn1` [compound 721], for which the IC50 in test [1] (P493-6, 72 h, read-out: Cell prolif P493 72h IC50, P493-6 cells, 72 h) came to 22 nM.

As for `Nc1cccc2c1C(=O)N(C1CCC(=O)NC1=O)C2=O` (centres unmarked) [pomalidomide], the “sensitivity of RPMI-8226 myeloma cells to the agent” value in test [6] is reported as “resistant”.
